Reference: ChEMBL document CHEMBL5665443, “Enzyme Inhibitor Single Concentration assay results for EUbOPEN Chemogenomics Library” (2024)
Where a SMILES comes first, the peptide text is derived from it.

Columns and labels:
Conditions in all cases: Hit No
[1] = target: T1, Endonuclease III-like protein 1 (Homo sapiens) (UniProt P78549);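 also: enzyme assay tracking NTHL1 cutting and release of a quenched double-stranded DNA oligo substrate, read as fluorescence at 594 nm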
T1 sequence (whole entry): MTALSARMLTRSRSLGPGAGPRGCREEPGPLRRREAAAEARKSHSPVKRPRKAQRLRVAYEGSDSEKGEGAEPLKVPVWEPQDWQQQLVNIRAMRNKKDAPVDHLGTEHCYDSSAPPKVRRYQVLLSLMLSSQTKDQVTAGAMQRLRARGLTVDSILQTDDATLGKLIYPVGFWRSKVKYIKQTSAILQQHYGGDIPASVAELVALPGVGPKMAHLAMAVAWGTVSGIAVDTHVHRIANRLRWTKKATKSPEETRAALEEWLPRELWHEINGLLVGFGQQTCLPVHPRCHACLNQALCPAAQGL
Description: Inhibition of NTHL1 by quantifying inhibition of NTHL1-mediated cleavage and dissociation of quenched duplex DNA oligonucleotides, measured as fluorescence at 594 nm.

[2] = target: G/T mismatch-specific thymine DNA glycosylase (Homo sapiens) (UniProt Q13569);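 also: human TDG cleavage of quenched duplex DNA oligonucleotides coupled to APE1, strand release read as fluorescence at 594 nm, inhibition of TDG activity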
G/T mismatch-specific thymine DNA glycosylase (Homo sapiens), sequence (Q13569 whole entry): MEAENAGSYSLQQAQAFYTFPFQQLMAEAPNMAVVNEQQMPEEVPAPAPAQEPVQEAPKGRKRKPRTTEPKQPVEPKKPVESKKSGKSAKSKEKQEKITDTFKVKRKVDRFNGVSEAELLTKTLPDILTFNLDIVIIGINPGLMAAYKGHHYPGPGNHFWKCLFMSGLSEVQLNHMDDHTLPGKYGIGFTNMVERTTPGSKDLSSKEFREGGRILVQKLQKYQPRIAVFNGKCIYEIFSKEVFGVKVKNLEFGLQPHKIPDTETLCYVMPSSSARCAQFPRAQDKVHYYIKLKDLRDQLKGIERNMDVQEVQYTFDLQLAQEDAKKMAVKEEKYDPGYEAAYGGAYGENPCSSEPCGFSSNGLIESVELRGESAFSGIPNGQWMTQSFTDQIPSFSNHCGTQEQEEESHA
Description: Inhibition of TDG by quantifying inhibition of TDG-mediated cleavage and dissociation of quenched duplex DNA oligonucleotides, measured as fluorescence at 594 nm. To generate a functional strand incision and increase turn-over this assay is coupled to APE1.

[3] = target: T2, Endonuclease 8-like 2 (Homo sapiens) (UniProt Q969S2);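 also: fluorescence at 594 nm reports NEIL2 cutting and release of a quenched double-stranded DNA oligo substrate, reduced signal read as inhibition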
T2 sequence (whole entry): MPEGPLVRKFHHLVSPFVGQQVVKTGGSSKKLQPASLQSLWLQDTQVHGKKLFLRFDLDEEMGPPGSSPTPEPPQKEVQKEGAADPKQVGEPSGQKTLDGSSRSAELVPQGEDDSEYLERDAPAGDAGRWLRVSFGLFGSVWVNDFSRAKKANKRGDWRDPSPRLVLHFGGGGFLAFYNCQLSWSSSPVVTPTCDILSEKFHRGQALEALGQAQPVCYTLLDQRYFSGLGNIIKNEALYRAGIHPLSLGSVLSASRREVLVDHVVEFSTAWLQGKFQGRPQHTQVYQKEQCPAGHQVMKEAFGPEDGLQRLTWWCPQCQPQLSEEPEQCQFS
Description: Inhibition of NEIL2 by quantifying inhibition of NEIL2-mediated cleavage and dissociation of quenched duplex DNA oligonucleotides, measured as fluorescence at 594 nm.

[4] = target: T3, Adenine DNA glycosylase (Homo sapiens) (UniProt Q9UIF7);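 also: human MUTYH activity read as 594 nm fluorescence from cleavage and release of a quenched DNA duplex, coupled with APE1 for strand incision, lower signal meaning inhibition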
T3 sequence (whole entry): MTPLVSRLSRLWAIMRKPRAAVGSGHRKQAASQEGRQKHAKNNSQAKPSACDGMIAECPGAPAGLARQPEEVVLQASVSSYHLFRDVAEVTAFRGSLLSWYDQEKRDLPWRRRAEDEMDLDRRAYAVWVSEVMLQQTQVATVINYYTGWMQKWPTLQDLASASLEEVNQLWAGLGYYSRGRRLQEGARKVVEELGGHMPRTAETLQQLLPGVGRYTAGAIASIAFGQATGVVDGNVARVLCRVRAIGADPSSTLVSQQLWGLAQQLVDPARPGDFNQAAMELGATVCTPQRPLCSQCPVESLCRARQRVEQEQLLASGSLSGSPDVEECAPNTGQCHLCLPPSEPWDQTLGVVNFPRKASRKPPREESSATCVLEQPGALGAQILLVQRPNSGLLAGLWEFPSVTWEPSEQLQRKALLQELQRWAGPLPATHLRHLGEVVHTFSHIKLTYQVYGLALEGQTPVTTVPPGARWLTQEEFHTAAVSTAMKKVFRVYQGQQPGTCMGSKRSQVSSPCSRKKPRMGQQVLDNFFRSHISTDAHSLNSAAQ
Description: Inhibition of MUTYH by quantifying inhibition of MUTYH-mediated cleavage and dissociation of quenched duplex DNA oligonucleotides, measured as fluorescence at 594 nm. To generate a functional strand incision and increase turn-over this assay is coupled to APE1.

[5] = target: Endonuclease 8-like 1 (Homo sapiens) (UniProt Q96FI4);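 also: fluorescence at 594 nm from quenched duplex DNA oligonucleotides released by NEIL1 cleavage and strand separation, reported as reduction of this enzyme activity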
Endonuclease 8-like 1 (Homo sapiens), sequence (Q96FI4 whole entry): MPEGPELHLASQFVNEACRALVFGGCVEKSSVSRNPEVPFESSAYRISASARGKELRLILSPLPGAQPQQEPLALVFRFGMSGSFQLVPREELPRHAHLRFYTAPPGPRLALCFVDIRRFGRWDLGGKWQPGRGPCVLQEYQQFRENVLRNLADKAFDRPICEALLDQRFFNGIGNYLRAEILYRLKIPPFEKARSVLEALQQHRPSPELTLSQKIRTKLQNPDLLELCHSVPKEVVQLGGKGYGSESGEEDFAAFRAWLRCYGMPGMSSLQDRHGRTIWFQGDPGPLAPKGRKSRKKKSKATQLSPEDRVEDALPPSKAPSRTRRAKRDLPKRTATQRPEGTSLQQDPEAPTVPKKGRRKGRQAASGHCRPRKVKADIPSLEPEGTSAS
Description: Inhibition of NEIL1 by quantifying inhibition of NEIL1-mediated cleavage and dissociation of quenched duplex DNA oligonucleotides, measured as fluorescence at 594 nm.

[6] = target: DNA-3-methyladenine glycosylase (Homo sapiens) (UniProt P29372);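 also: enzyme assay where MPG cuts a quenched duplex DNA oligonucleotide probe, paired with APE1 for strand incision and turnover, read as fluorescence at 594 nm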
DNA-3-methyladenine glycosylase (Homo sapiens), sequence (P29372 whole entry): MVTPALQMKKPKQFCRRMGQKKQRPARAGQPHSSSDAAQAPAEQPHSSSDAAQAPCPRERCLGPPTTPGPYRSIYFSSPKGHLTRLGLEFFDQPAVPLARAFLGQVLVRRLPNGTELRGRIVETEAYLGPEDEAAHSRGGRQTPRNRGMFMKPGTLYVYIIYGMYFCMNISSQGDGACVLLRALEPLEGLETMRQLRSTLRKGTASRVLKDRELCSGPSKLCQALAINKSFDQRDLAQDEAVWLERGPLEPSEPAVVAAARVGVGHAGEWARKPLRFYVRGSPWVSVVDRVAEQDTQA
Description: Inhibition of MPG by quantifying inhibition of MPG-mediated cleavage and dissociation of quenched duplex DNA oligonucleotides, measured as fluorescence at 594 nm. To generate a functional strand incision and increase turn-over this assay is coupled to APE1.

[7] = target: N-glycosylase/DNA lyase (Homo sapiens) (UniProt O15527);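 also: OGG1 cleavage of a quenched duplex DNA oligonucleotide, coupled to APE1 for strand incision, read as fluorescence at 594 nm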
N-glycosylase/DNA lyase (Homo sapiens), sequence (O15527 whole entry): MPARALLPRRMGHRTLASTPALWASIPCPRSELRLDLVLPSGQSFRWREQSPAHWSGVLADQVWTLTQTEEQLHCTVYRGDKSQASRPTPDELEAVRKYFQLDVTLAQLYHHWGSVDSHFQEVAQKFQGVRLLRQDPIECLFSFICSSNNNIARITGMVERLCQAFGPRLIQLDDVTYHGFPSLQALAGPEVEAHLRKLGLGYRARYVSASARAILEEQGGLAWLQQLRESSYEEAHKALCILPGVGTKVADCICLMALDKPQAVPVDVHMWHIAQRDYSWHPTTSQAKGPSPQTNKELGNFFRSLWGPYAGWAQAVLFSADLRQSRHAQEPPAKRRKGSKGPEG
Description: Inhibition of OGG1 by quantifying inhibition of OGG1-mediated cleavage and dissociation of quenched duplex DNA oligonucleotides, measured as fluorescence at 594 nm. To generate a functional strand incision and increase turn-over this assay is coupled to APE1.

[8] = target: T4, Single-strand selective monofunctional uracil DNA glycosylase (Homo sapiens) (UniProt Q53HV7);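 also: enzymatic SMUG1 assay coupled with APE1, reading fluorescence at 594 nm released when a quenched double-stranded DNA oligonucleotide substrate is cleaved and separated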
T4 sequence (whole entry): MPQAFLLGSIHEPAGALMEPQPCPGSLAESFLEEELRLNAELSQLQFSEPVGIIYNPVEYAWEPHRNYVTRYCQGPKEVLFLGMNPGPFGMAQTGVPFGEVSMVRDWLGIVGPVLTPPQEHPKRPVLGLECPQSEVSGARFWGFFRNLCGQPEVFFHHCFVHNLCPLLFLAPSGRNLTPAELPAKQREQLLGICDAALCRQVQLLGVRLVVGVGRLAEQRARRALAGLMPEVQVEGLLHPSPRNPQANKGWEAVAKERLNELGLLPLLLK
Description: Inhibition of SMUG1 by quantifying inhibition of SMUG1-mediated cleavage and dissociation of quenched duplex DNA oligonucleotides, measured as fluorescence at 594 nm. To generate a functional strand incision and increase turn-over this assay is coupled to APE1.

[9] = target: Uracil-DNA glycosylase (Homo sapiens) (UniProt P13051);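 also: UNG excision on a quenched double-stranded DNA oligo probe, with APE1 added for strand incision and turnover, read as fluorescence at 594 nm as strands separate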
Uracil-DNA glycosylase (Homo sapiens), sequence (P13051 whole entry, the tested form may be a part): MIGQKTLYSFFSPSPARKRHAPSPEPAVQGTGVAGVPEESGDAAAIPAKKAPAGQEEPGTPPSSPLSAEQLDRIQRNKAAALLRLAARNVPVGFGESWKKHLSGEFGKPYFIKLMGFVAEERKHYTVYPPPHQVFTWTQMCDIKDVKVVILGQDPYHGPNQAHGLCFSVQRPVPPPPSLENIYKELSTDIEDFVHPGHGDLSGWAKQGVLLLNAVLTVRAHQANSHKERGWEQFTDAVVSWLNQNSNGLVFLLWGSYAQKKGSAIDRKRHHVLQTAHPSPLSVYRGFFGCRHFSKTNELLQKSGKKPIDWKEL
Description: Inhibition of UNG by quantifying inhibition of UNG-mediated cleavage and dissociation of quenched duplex DNA oligonucleotides, measured as fluorescence at 594 nm. To generate a functional strand incision and increase turn-over this assay is coupled to APE1.

[10] = target: Methyl-CpG-binding domain protein 4 (Homo sapiens) (UniProt O95243);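 also: MBD4 activity read as fluorescence at 594 nm from cleavage and release of a quenched duplex DNA oligonucleotide, with APE1 coupled to incise the strand and raise turnover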
Methyl-CpG-binding domain protein 4 (Homo sapiens), sequence (O95243 whole entry, the tested form may be a part): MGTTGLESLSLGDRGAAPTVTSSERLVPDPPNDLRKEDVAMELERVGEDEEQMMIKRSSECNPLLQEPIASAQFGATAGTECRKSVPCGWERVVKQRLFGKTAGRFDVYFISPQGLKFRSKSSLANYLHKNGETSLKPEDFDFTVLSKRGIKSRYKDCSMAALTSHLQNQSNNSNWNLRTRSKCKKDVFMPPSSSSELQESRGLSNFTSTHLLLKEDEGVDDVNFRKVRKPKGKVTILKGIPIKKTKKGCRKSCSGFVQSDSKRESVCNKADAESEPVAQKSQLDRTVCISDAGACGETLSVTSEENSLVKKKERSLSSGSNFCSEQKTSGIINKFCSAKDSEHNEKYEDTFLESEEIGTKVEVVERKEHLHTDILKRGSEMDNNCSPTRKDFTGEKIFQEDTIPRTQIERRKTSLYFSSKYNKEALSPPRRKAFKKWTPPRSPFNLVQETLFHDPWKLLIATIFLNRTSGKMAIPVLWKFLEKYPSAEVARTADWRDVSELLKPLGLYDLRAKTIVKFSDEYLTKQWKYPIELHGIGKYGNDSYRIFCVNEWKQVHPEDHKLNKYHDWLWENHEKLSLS
Description: Inhibition of MBD4 by quantifying inhibition of MBD4-mediated cleavage and dissociation of quenched duplex DNA oligonucleotides, measured as fluorescence at 594 nm. To generate a functional strand incision and increase turn-over this assay is coupled to APE1.

Structure (SMILES)	inhibition ([1]; Compound Concentration 10.0 uM) [%]	inhibition ([2]; Compound Concentration 10.0 uM) [%]	inhibition ([3]; Compound Concentration 10.0 uM) [%]	inhibition ([4]; Compound Concentration 10.0 uM) [%]	inhibition ([5]; Compound Concentration 10.0 uM) [%]	inhibition ([6]; Compound Concentration 10.0 uM) [%]	inhibition ([7]; Compound Concentration 10.0 uM) [%]	inhibition ([8]; Compound Concentration 10.0 uM) [%]	inhibition ([9]; Compound Concentration 10.0 uM) [%]	inhibition ([10]; Compound Concentration 10.0 uM) [%]	inhibition ([1]; Compound Concentration 1.0 uM) [%]	inhibition ([2]; Compound Concentration 1.0 uM) [%]	inhibition ([3]; Compound Concentration 1.0 uM) [%]	inhibition ([4]; Compound Concentration 1.0 uM) [%]	inhibition ([5]; Compound Concentration 1.0 uM) [%]	inhibition ([6]; Compound Concentration 1.0 uM) [%]	inhibition ([7]; Compound Concentration 1.0 uM) [%]	inhibition ([8]; Compound Concentration 1.0 uM) [%]	inhibition ([9]; Compound Concentration 1.0 uM) [%]	inhibition ([10]; Compound Concentration 1.0 uM) [%]
CC[C@H](C)[C@H](NC(=O)[C@H](Cc1ccc(O)cc1)NC(=O)[C@@H](NC(=O)[C@H](CCCNC(=N)N)NC(=O)[C@@H](N)CC(=O)O)C(C)C)C(=O)N[C@@H](Cc1cnc[nH]1)C(=O)N[C@H](C)C(=O)O (HELM PEPTIDE1{D.R.V.Y.I.H.[dA]}$$$$V2.0)	17.1	1.59	-1.88	-8.51	9.79	-4.39	-9.35	-8.77	-2.81	6.33	–	–	–	–	–	–	–	–	–	–
COc1ccc(-c2csc(NC(=O)[C@H]3CCCCN3S(=O)(=O)c3ccc(C)cc3)n2)cc1	22	5.87	3.47	11.1	4.6	12	-5.94	12.1	-6.47	10.3	–	–	–	–	–	–	–	–	–	–
Cc1cccc(F)c1C(=O)Nc1cnc(-c2cc3c(cc2Cl)OC(F)(F)O3)cn1	8.82	-9.45	6.27	6.43	1.79	18.4	-4.79	9.65	-6.24	7.48	–	–	–	–	–	–	–	–	–	–
NCCc1c[nH]c2ccc(O)cc12	1.92	20.7	9.75	2.2	5.88	21.8	-2.75	-6.38	-8.18	-6.88	–	–	–	–	–	–	–	–	–	–
CC[C@H](C(=O)Nc1ccccc1N1CCCC1)c1ccccc1	2.22	33.1	3.22	20.6	13.8	33.7	0.561	1.62	-2.53	34.6	–	–	–	–	–	–	–	–	–	–
COc1cc(NC(=O)CCN2CCC(OC(=O)Nc3ccccc3-c3ccccc3)CC2)c(Cl)cc1CNC[C@H](O)c1ccc(O)c2[nH]c(=O)ccc12	9.99	16.7	-2.98	11.4	-7.76	7.51	-7.57	0.984	-5.99	-6.36	–	–	–	–	–	–	–	–	–	–
N#Cc1ccc(NC(=O)Nc2ccccc2Br)c2nn[nH]c12	9.25	26.3	1.51	35.7	0.686	-2.94	-1.34	7.57	-8.36	21	–	–	–	–	–	–	–	–	–	–
CC(=O)Nc1cccc(-n2c(=O)n(C3CC3)c(=O)c3c(Nc4ccc(I)cc4F)n(C)c(=O)c(C)c32)c1	–	–	–	–	–	–	–	–	–	–	-1.31	45.9	1.85	15.8	2.25	11.7	8.25	18.1	7.39	22.2
CC[C@H]1[C@@H](O)[C@@H]2[C@H](CC[C@]3(C)[C@@H]([C@H](C)CCC(=O)O)CC[C@@H]23)[C@@]2(C)CC[C@@H](O)C[C@@H]12	1.34	67.3	1.55	24.4	1.53	17.5	26.2	27.8	5.49	77.2	–	–	–	–	–	–	–	–	–	–
NS(=O)(=O)c1c(Cl)ccc(NC(=O)Nc2cccc(Cl)c2Cl)c1O	29	16.5	3.51	10.9	-2.13	14.5	6.41	8.49	-6.48	14.2	–	–	–	–	–	–	–	–	–	–
Oc1cc2c(cc1O)CN(C(=S)NCCc1ccc(Cl)cc1)CCC2	3.04	46.1	6.53	73.8	12.2	26.6	-1.56	1.46	3.52	39.2	–	–	–	–	–	–	–	–	–	–
Cc1cccc(NC(=O)CN2CCC(c3ccccn3)CC2)c1	12.1	12.4	-0.35	18.5	-1.77	7.82	0.0304	0.438	-6.98	8.44	–	–	–	–	–	–	–	–	–	–
C[C@@H](CN1CCC(Cc2ccccc2)CC1)[C@@H](O)c1ccc(O)cc1	12.9	-7.39	2.2	-7.47	3.42	-5.23	-8.67	4.28	-6.48	-0.918	–	–	–	–	–	–	–	–	–	–
